From patent publication US12024498B2, “Radical compounds and methods of using thereof” (OHIO STATE INNOVATION FOUNDATION, priority 2017, dated 2024)
Like-named read-outs stand apart in the source and are kept apart here.

Target: 13C,15N-wt-huPrP23-144 fibrils (Homo sapiens, UniProt P04156)
[1] = 12 mM biradical in 6:3:1 d8-glycerol/D2O/H2O, 12 kHz MAS

Sequence of 13C,15N-wt-huPrP23-144 fibrils (P04156 23-144 limits assumed): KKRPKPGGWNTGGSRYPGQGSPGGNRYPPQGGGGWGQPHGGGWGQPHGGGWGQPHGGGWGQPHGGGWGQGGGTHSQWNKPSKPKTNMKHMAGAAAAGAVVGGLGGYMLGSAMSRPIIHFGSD

## TOAC-TOAC-Ser [TTS]
12 mM biradical in 6:3:1 d8-glycerol/D2O/H2O
  Optimal recycle delay: 1.52 s
[1]
  1H T1: 1.29 s
  εDNP: 18-25
  τDNP: 1.21 s
12 mM biradical, huPrP23-144 fibril samples
  τDNP: 2 s
